This is an account of results in patent US11304944B2, “MetAP2 inhibitors and methods of treating obesity” (SynDevRx, Inc., priority 2013, dated 2022).

Read-outs that look alike come from different tables or passages of the source.

The subject of data set [1] is DIO Levin rats. The data set can be described thus: Oral Glucose Tolerance Test (OGTT) Day 48 and HOMA-ir in DIO Levin rats.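 As to Blood Glucose pre-OGTT: blood glucose in mg/dL.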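 As to Blood Glucose, Time 120: blood glucose in mg/dL.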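 As to Blood Glucose, Time 15: blood glucose in mg/dL.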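 As to Blood Glucose, Time 30: blood glucose in mg/dL.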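 As to Blood Glucose, Time 60: blood glucose in mg/dL.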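 As to Blood Glucose, Time 90: blood glucose in mg/dL.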 It is filed as in vivo. The conditions noted are these: 1.15 mg/kg q4d sc. Here is the method:
(§1) Animals were weighed every other day. Food consumption was measured weekly. On an approximately weekly basis throughout the study, blood samples were taken for assessment of serum chemistries including glucose and insulin. On Day 48 all rats underwent a 4 hour fasted Oral Glucose Tolerance Test (OGTT). Animals were dosed orally (per os, PO) at 8 mL/kg 25% glucose (2 g/kg). On day 68, gross pathology was performed to determine body composition.

For data set [2] the following is noted: cited from earlier work.
In data set [3] the test system is DIO Levin rats. Put plainly: In vivo testing DIO Levin rats: weight changes, food consumption, insulin, leptin levels. As for the experimental part:
CKD-732 as referred to herein is the hemitartrate salt of the following structure:
Test articles were administered subcutaneously on an every 4 day (q4d) schedule in a diet-induced obesity (DIO) Levin-DS rat model. […] A dietary intervention (Standard Chow, Labdiet 5001; 3.4 kcal/g) was included to compare to the drug interventions. Upon arrival at three weeks of age, the male rats received ad libitum pellets of Harlan Diet TD.06414, 60% of calories from fat, 21% of calories from carbohydrate; 5.1 kcal/g. Prior to dosing the rats were randomized into groups of three animals with an average body weight of 595 gm. […] Compound 1 in the form of the hemitartrate and CKD-732 in the form of the hemitartrate were dissolved in ethanol prior to dilution with vehicle. All doses were administered at a volume of 5.0 ml/kg. […] On day 1, first dose, the rats were 14 weeks of age. Also on day 1, Group 2 was switched from the high fat diet to a standard chow diet; the remaining groups were maintained on a high fat diet for the duration of the study.
as §1

In another data set the test system is DIO C57Bl/6 mice. The data set can be described thus: In vivo testing DIO mice schedule-dose response: weight, food intake, ipGTT, HOMA-ir data. Here is the method:
Animals were dosed according to the schedule in Table 17 below.
Compound dosing occurred between 9 and 10 am on the day of dosing. Groups 6 and 7 received a total of 17 doses. The q4d groups (1, 2, 3, 4, 8, 9) received a total of 9 doses. The q8d group (5) received a total of 5 drug doses. Body weight and food intake were measured every other day. Blood glucose was measured on Day −7, Day 0, Day 7, Day 14, Day 21 and Day 28 at 9:00 am in fed state (BG measured before dose on dosing days). BG was measured by glucometer. An intraperitoneal glucose tolerance test (ipGTT, 6 h fasting) was performed.
The study was terminated on day 34. Liver and epididymal white adipose tissues (eWAT) were harvested, weighed and stored at −80° C. Sera was collected to determine: AST, ALT, ALP, CK, BUN, creatinine, calcium, potassium, sodium, chloride, total protein, albumin, total bilirubin, glucose, triglyceride and cholesterol. Insulin samples were measured using a commercial kit.

The subject of data set [4] is DIO C57Bl6 mice. The data set can be described thus: In vivo testing DIO C57Bl6 mice: weight changes, food consumption, body composition (Compound 16 vs TNP-470). As for the experimental part: C57Bl6 male mice (N=6) thirteen weeks old with an average of weight of 34 g were ad libitum fed TD.06414 a high fat diet composed of 60% Kcal from fat (Harlan diet). On study day 1 animals were randomized into groups so that the average weight of each group was 33.9 g. […] Animals were weighed every other day. Food consumption was measured weekly. On day 33 gross pathology was performed to determine body composition.

The test system of data set [5] is DIO C57Bl6 mice. The data set can be described thus: Efficacy of various compounds in DIO mouse model (body weight versus time). It is filed as in vivo. The conditions noted are these: 2 mg/kg q4d sc; for BW change vs. vehicle: day 26. As for the experimental part: On study day 1 animals were randomized into groups so that the average weight of the mice in each group was 47 g. The mice were treated with either phosphate buffered saline (vehicle), or compounds as listed in Table 19 dissolved in vehicle (dorsal, subcutaneous administration).

The mark [6] stands for this setting: qod (Cmpd 16 1 mg/kg qod), Day 33.

On to `COC1C(OC(=O)/C=C/c2ccc(OCCN(C)C)cc2)CC[C@]2(CO2)C1[C@@]1(C)O[C@@H]1CC=C(C)C` (stereo partly drawn) [CKD-732, reference compound], for which, in the data set with DIO Levin rats [1], the “Blood Glucose pre-OGTT” value stood at 123 mg/dL, the “HOMA-ir (Insulin Sensitivity) 15 min” value is reported as 49.0, the “HOMA-ir (Insulin Sensitivity) 30 min” value is given as 35.9 and the “HOMA-ir (Insulin Sensitivity) Pre-dose” value is 13.6. In the data set on DIO Levin rats [1] (OGTT), the “Blood Glucose, Time 15” value turned out to be 174 mg/dL; the “Blood Glucose, Time 30” value was determined as 171 mg/dL; the “Blood Glucose, Time 60” value stood at 158 mg/dL; the “Blood Glucose, Time 90” value stood at 153 mg/dL. Moreover, the “Blood Glucose, Time 120” value in the data set on DIO Levin rats [1] (OGTT) amounted to 144 mg/dL. Besides, the BW in the data set with DIO Levin rats [1] (at OGTT) is 686 g. In data set [2] (every fourth day schedule, due to confusion and insomnia), the MTD is 15 mg/m2/day. Besides, the “lower body weight than vehicle” value with DIO Levin rats [3] (1.15 mg/kg Q4D) came out at 3.2%. In the data set on DIO Levin rats [3] (1.15 mg/kg q4d sc), the “Avg. Insulin Day 7” value amounted to 2.08 ng/mL, the “Avg. Insulin Day 15” value stood at 1.91 ng/mL, the “Avg. Insulin Day 23” value is on record as 1.60 ng/mL and the “Avg. Insulin Day 48” value stood at 1.56 ng/mL. Moreover, in the data set on DIO Levin rats [3] (1.15 mg/kg q4d sc), the “Avg. Insulin Pre-dosing” value was found to be 2.58 ng/mL, the “Group Average Food Consumption Day 1-8” value was found to be 131.8 g, the “Group Average Food Consumption Day 9-15” value came out at 110.5 g and the “Group Average Food Consumption Day 16-23” value is 108.7 g. Further, in the data set on DIO Levin rats [3] (1.15 mg/kg q4d sc), the “Group Average Food Consumption Day 24-30” value stood at 133.9 g, the “Group Average Food Consumption Day 31-36” value is listed as 153.9 g, the “Group Average Food Consumption Day 37-43” value amounted to 148.7 g and the “Group Average Food Consumption Day 44-50” value is reported as 112.3 g. In the data set with DIO Levin rats [3] (1.15 mg/kg q4d sc), the “Group Average Food Consumption Day 51-57” value is given as 135.0 g, the “Group Average Food Consumption Day 58-63” value amounted to 125.5 g, the “Group Average Food Consumption Day 63-68” value turned out to be 61.9 g and the “Leptin Levels Day 29” value is recorded as 4.30. In the data set on DIO Levin rats [3] (1.15 mg/kg q4d sc), the “Leptin Levels Pre-dose” value was 4.43 and the “Leptin Levels, Day 29, % Change from Baseline” value is reported as −3.0%. Also, the “Final BW” value in the data set with DIO Levin rats [3] (1.15 mg/kg q4d sc, after 68 days, 60% fat diet) is 714.0 g. In the data set with DIO C57Bl/6 mice (1 mg/kg Q2D), the “Glucose, ipGTT 0 min” value is 161.3 mg/dL; the “Glucose, ipGTT 15 min” value is 469.2 mg/dL; the “Insulin, ipGTT 0 min” value is given as 54.8 uU/ml; the “Insulin, ipGTT 15 min” value was 89.3 uU/ml. In addition, in the data set on DIO C57Bl/6 mice (2 mg/kg q4d), the “Glucose, ipGTT 0 min” value amounted to 182.6 mg/dL; the “Glucose, ipGTT 15 min” value was 498.6 mg/dL; the “Insulin, ipGTT 0 min” value is 99.8 uU/ml; the “Insulin, ipGTT 15 min” value stood at 118.3 uU/ml. For the same compound, in the data set on DIO C57Bl/6 mice (Q2D (QOD) schedule versus Q4D, FIG. 20), the “response (weight loss) by schedule” value was “better response than the same average daily dose administered on a Q4D schedule”.

`CO[C@@H]1[C@H](OC(=O)NC(=O)CCl)CC[C@]2(CO2)[C@H]1[C@@]1(C)O[C@@H]1CC=C(C)C` [TNP-470, chloroacetylcarbamoylfumagillol, reference compound]: the Body Weight Day 33 with DIO C57Bl6 mice [4] (0.5 mg/kg/day, qod, sc) is 34.1 g. Besides, in the data set with DIO C57Bl6 mice [4] (setting [6]), the B.W. was 34.1 grams, the “Epididymal Fat” value came out at 1.54 grams, the “Inguinal Fat” value stood at 1.21 grams and the Liver was 1.15 grams. In the data set on DIO C57Bl6 mice [4] (setting [6]), the “Retroperitoneal Fat” value is 0.80 grams and the “Total Fat” value is given as 3.55 grams. Further, the MTD in data set [2] (in combination with paclitaxel, dosed three times per week) was 60 mg/m2.

For the compound “poly[HPMA-co-MA-GFLG-N-(cis-4-aminocyclohexyl)carbamoylfumagillol] [Compound cis-16]”, in the data set with DIO C57Bl6 mice [5], the “Group Avg. BW, Study Day 1” value is 47.0 g; the “Group Avg. BW, Study Day 7” value is 42.7 g; the “Group Avg. BW, Study Day 15” value is recorded as 42.6 g; the “Group Avg. BW, Study Day 21” value came out at 40.9 g. Moreover, in the data set with DIO C57Bl6 mice [5], the “Group Avg. BW, Study Day 26” value amounted to 40.6 g and the “BW change vs. vehicle” value is reported as −12.0%.

With “poly[HPMA-co-MA-GFLG-NH-2-[(2-(2-aminoethoxy)ethoxy)ethyl]carbamoylfumagillol] [Compound bb]”, in the data set on DIO C57Bl6 mice [5], the “Group Avg. BW, Study Day 1” value was found to be 47.0 g; the “Group Avg. BW, Study Day 7” value is 43.6 g; the “Group Avg. BW, Study Day 15” value amounted to 43.9 g; the “Group Avg. BW, Study Day 21” value amounted to 42.2 g. For the same compound, in the data set on DIO C57Bl6 mice [5], the “Group Avg. BW, Study Day 26” value is 42.5 g and the “BW change vs. vehicle” value is −7.8%.
